{"source": "patent US10016383B2", "about": "“Inhibitors of metallo-β-lactamase-enzymes” (McMaster University, priority 2013, dated 2018)", "molecular_target": "NDM-1 (Klebsiella pneumoniae, UniProt C7C422)", "sequence (C7C422 29-270 limits assumed)": "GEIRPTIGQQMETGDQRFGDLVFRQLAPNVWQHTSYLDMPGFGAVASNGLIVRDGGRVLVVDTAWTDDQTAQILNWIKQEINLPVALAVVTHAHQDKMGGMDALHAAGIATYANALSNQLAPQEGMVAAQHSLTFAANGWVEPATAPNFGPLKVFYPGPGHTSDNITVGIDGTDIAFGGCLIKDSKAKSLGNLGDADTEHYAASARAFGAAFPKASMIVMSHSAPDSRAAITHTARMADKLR", "experiment": "Reversibility assay (PD-10 column removal of AM-A)", "assay_type": "biochemical", "parameters": "All β-lactamase overexpression constructs were generated without the leader peptide in a pET-28b plasmid containing a N-terminal His Tag; His tag (N, cleaved yes); SUMO (implied by the use of SUMO protease) (N, cleaved yes); made in house; host or cells: E. coli BL21(DE3)", "conditions": "after removal of AM-A by gel filtration (PD10 column)", "protocol": "5 mL NDM-1 (500 nM) was incubated either with AM-A (100 μM), or without, on ice for 1 hour. The no enzyme control was buffer alone (Chelex-treated 50 mM HEPES pH 7.5). 2.5 mL was passed through a PD-10 spin column (GE healthcare) following column equilibration with buffer and centrifuged at 2,000×g for 2 minutes. Pre-PD-10 (+AM-A, −AM-A, −NDM-1), Post-PD-10 ((+AM-A, −AM-A, −NDM-1), and nitrocefin were equilibrated to 30° C. 20 μL of the enzyme solution was added to 180 μL nitrocefin for final enzyme concentration of 50 nM, and nitrocefin of 100 μM and AM-A of 10 μM. Assays were read in 96-well microplate format at 490 nm using a Spectramax reader (Molecular Devices) for 1 hr at 30° C.", "data": [{"smiles": "N[C@H](CN[C@H](CN[C@@H](CC(=O)O)C(=O)O)C(=O)O)C(=O)O", "note": "[AM-A, aspergillomarasmine A]", "values": [{"measurement": "reversibility of NDM-1 inhibition", "value": "irreversible inactivation"}]}]}
